PMC6387369, “Carbonic Anhydrase Inhibitors of Different Structures Dilate Pre-Contracted Porcine Retinal Arteries” (International Journal of Molecular Sciences, 2019)
Read-outs that look alike come from different tables or passages of the source.

Legend:
porcine retinal arteries = experiment: small vessel myography of wall tension in isolated retinal artery segments pre-contracted with U-46619; format: cell-based; conditions: for wall tension reached after dilation: final level (slower phase for compound 4); for EC50: Sus scrofa, best fit to concentration-response curves, arteries pre-contracted with 10^−6 M U-46619, read-out: mean EC50 of vasodilation; for vasodilation in a single representative experiment, percent of maximum contraction / mean dilation as percentage of the maximum contraction induced by U-46619: single dose of 10^−3 M; for vasodilation in a single representative experiment, percent of maximum contraction: pre-contracted with 10^−6 M U-46619; for mean dilation as percentage of the maximum contraction induced by U-46619: mean ± SEM; for peak wall tension after U-46619: 10^−6 M
hCA I [1] = target: T1, hCA I (Homo sapiens, UniProt P00915); experiment: stopped flow CO2 hydrase assay, hCA I; format: biochemical; conditions: mean from 3 assays, errors ± 5%–10%
T1 construct: made in house
T1 sequence (P00915 whole entry): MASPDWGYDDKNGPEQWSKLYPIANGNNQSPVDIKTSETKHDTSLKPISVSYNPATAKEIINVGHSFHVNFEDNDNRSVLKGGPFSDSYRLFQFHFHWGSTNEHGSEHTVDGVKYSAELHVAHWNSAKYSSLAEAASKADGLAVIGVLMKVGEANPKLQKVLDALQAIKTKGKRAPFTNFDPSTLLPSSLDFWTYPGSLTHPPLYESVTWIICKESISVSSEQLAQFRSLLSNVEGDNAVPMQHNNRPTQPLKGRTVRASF

hCA II [2] = target: T2, hCA II (Homo sapiens, UniProt P00918); experiment: stopped flow CO2 hydrase assay, hCA II; format: biochemical; conditions: mean from 3 assays, errors ± 5%–10%
T2 construct: made in house

hCA IX = target: T3, hCA IX (Homo sapiens, UniProt Q16790); experiment: stopped flow CO2 hydrase assay, hCA IX; format: biochemical; conditions: mean from 3 assays, errors ± 5%–10%
T3 construct: made in house

hCA XII = target: T4, hCA XII (Homo sapiens, UniProt O43570); experiment: stopped flow CO2 hydrase assay, hCA XII; format: biochemical
T4 construct: made in house
T4 sequence (O43570 25-354): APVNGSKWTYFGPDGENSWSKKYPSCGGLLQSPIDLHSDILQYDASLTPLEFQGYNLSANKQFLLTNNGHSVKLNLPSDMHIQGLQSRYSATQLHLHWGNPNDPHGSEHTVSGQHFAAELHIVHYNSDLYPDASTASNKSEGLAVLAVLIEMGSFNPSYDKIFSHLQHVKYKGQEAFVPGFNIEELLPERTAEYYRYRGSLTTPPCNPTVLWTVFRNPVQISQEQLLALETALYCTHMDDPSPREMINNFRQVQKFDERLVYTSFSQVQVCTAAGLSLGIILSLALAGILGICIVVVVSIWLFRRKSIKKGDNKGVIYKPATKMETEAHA

hCA IV = target: T5, hCA IV (Homo sapiens, UniProt P22748); experiment: stopped flow CO2 hydrase assay, hCA IV; format: biochemical; conditions: mean from 3 assays, errors ± 5%–10%
T5 construct: made in house
T5 sequence (P22748 19-312): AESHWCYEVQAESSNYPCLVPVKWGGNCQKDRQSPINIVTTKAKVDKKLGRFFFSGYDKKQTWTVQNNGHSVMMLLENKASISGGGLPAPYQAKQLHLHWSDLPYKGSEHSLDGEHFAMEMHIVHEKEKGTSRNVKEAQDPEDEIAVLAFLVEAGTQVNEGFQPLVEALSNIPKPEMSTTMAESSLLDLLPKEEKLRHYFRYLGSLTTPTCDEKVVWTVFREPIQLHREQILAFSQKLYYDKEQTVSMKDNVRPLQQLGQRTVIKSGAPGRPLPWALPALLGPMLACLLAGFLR

hCA I [3] = target: T1, hCA I; conditions: stopped flow; cited from earlier work
hCA II [4] = target: T2, hCA II; design: method as in PMID 16996620; conditions: stopped flow; cited from earlier work

Structure (SMILES): C#CCOc1ccc2oc(=O)ccc2c1 [Compound 4]
- wall tension after initial very fast phase of dilation (porcine retinal arteries; 10^−3 M, one vessel, peak constriction 1.63 mN/mm (Figure 3B)): about 0.66 mN/mm
- wall tension reached after dilation (porcine retinal arteries; 10^−3 M, one vessel): about 0.36 mN/mm
- EC50 (porcine retinal arteries): 134 µM
- vasodilation in a single representative experiment, percent of maximum contraction (porcine retinal arteries; one vessel): 101%
- mean dilation as percentage of the maximum contraction induced by U-46619 (porcine retinal arteries): 98.8% ± 6.1%

Structure (SMILES): CCCCC[C@H](O)/C=C/[C@@H]1[C@@H](C/C=C\CCCC(=O)O)[C@H]2CO[C@@H]1C2 [Compound U-46619, 9,11-dideoxy-9 α,11α methanoepoxy prostaglandin F2α, reference compound]
- peak wall tension after U-46619 (porcine retinal arteries; Figure 2A, baseline 0.4 mN/mm): about 1.75 mN/mm
- peak wall tension after U-46619 (porcine retinal arteries; Figure 3A, baseline 0.6 mN/mm): 2.4 mN/mm
- peak wall tension after U-46619 (porcine retinal arteries; Figure 3B, baseline about 0.38 mN/mm): 1.63 mN/mm
- peak wall tension after U-46619 (porcine retinal arteries; Figure 4A, baseline 1.54 mN/mm): 3.38 mN/mm
- peak wall tension after U-46619 (porcine retinal arteries; Figure 4B, baseline 0.95 mN/mm): 2.21 mN/mm

Structure (SMILES): C#CCN(CC#C)CCc1ccc(S(N)(=O)=O)cc1 [Compound 3]
- Ki (hCA I [1]): 4.01 µM
- Ki (hCA II [2]): 0.0058 µM
- Ki (hCA IX): 0.0557 µM
- EC50 (porcine retinal arteries): 188 µM
- vasodilation in a single representative experiment, percent of maximum contraction (porcine retinal arteries; one vessel): 91%
- mean dilation as percentage of the maximum contraction induced by U-46619 (porcine retinal arteries): 102.2% ± 3.7%

Structure (SMILES): C#CCNc1ccc2c(C)cc(=O)oc2c1 [Compound 6]
- Ki (hCA I [1]): > 10 µM
- Ki (hCA II [2]): > 10 µM
- Ki (hCA IX): 0.474 µM
- Ki (hCA XII; mean from 3 assays, errors ± 5%–10%): 0.0445 µM
- EC50 (porcine retinal arteries): 101 µM
- vasodilation in a single representative experiment, percent of maximum contraction (porcine retinal arteries; one vessel): 96.8%
- mean dilation as percentage of the maximum contraction induced by U-46619 (porcine retinal arteries): 99.5% ± 1.2%

Structure (SMILES): NS(=O)(=O)c1nnc(NS(=O)(=O)c2ccccc2)s1 [Compound 1, Benzolamide, reference compound]
- Ki (hCA IV): 0.012 µM
- final dilation when added after DZA dilation had reached a steady level (porcine retinal arteries; 10^−3 M BZA added on top of 10^−3 M DZA, one vessel (Figure 2B)): 100%
- EC50 (porcine retinal arteries): 84.3 µM
- vasodilation in a single representative experiment, percent of maximum contraction (porcine retinal arteries; one vessel): almost complete inhibition
- mean dilation as percentage of the maximum contraction induced by U-46619 (porcine retinal arteries): 78.4% ± 8.5%

Structure (SMILES): C#CCOc1ccc2ccc(=O)oc2c1 [Compound 5]
- Ki (hCA IV): 0.0764 µM
- times less effective than 4 against hCA XII (hCA XII; ratio of KI values versus compound 4): 12.9 times
- wall tension reached after dilation (porcine retinal arteries; 10^−3 M, one vessel): 0.77 mN/mm
- EC50 (porcine retinal arteries): 4.12 µM
- vasodilation in a single representative experiment, percent of maximum contraction (porcine retinal arteries; one vessel): 140%
- mean dilation as percentage of the maximum contraction induced by U-46619 (porcine retinal arteries): 116.5% ± 1.7%
- Ki (hCA I [3]): > 10 µM
- Ki (hCA II [4]): > 10 µM

Structure (SMILES): CCN[C@H]1C[C@H](C)S(=O)(=O)c2sc(S(N)(=O)=O)cc21 [Compound 2, Dorzolamide, reference compound]
- vasodilation in a single representative experiment, percent of maximum contraction (porcine retinal arteries; one vessel): 33%
- mean dilation as percentage of the maximum contraction induced by U-46619 (porcine retinal arteries): 69.7% ± 5.7%
